Source: ChEMBL document CHEMBL3120105, “Identification of weak points of hepatitis C virus NS3 protease inhibitors using surface plasmon resonance biosensor-based interaction kinetic analysis and genetic variants” (J Med Chem, 2014)
Where a SMILES comes first, the peptide text is derived from it. [ ]: non-standard residue; d: D form. dGla = N[C@H](CC(C(=O)O)C(=O)O)C(=O)O; Cha = N[C@@H](CC1CCCCC1)C(=O)O

Legend:
[1] = Inhibition of Hepatitis C virus genotype 3a full-length NS3 protease assessed as overall/observed affinity by surface plasmon resonance biosensor-based interaction kinetic analysis; design: species or system Hepatitis C virus subtype 3a
[2] = Inhibition of Hepatitis C virus genotype 1b NS3 protease domain assessed as overall/observed affinity by surface plasmon resonance biosensor-based interaction kinetic analysis; design: species or system Hepatitis C virus subtype 1b
[3] = Inhibition of Hepatitis C virus genotype 1b full-length NS3/NS4A protease assessed as overall/observed affinity by surface plasmon resonance biosensor-based interaction kinetic analysis; design: species or system Hepatitis C virus subtype 1b
[4] = Inhibition of Hepatitis C virus genotype 1b full-length NS3 protease assessed as overall/observed affinity by surface plasmon resonance biosensor-based interaction kinetic analysis; design: species or system Hepatitis C virus subtype 1b
[5] = Inhibition of Hepatitis C virus genotype 1a full-length NS3/NS4A protease assessed as overall/observed affinity by surface plasmon resonance biosensor-based interaction kinetic analysis; design: species or system Hepatitis C virus subtype 1a
[6] = Inhibition of Hepatitis C virus genotype 1a full-length NS3 protease assessed as overall/observed affinity by surface plasmon resonance biosensor-based interaction kinetic analysis; design: species or system Hepatitis C virus subtype 1a
[7] = Inhibition of Hepatitis C virus genotype 3a full-length NS3 protease assessed as equilibrium dissociation constant by surface plasmon resonance biosensor-based interaction kinetic analysis; design: species or system Hepatitis C virus subtype 3a
[8] = Inhibition of Hepatitis C virus genotype 1b NS3 protease domain assessed as equilibrium dissociation constant by surface plasmon resonance biosensor-based interaction kinetic analysis; design: species or system Hepatitis C virus subtype 1b
[9] = Inhibition of Hepatitis C virus genotype 1b full-length NS3/NS4A protease assessed as equilibrium dissociation constant by surface plasmon resonance biosensor-based interaction kinetic analysis; design: species or system Hepatitis C virus subtype 1b
[10] = Inhibition of Hepatitis C virus genotype 1b full-length NS3 protease assessed as equilibrium dissociation constant by surface plasmon resonance biosensor-based interaction kinetic analysis; design: species or system Hepatitis C virus subtype 1b
[11] = Inhibition of Hepatitis C virus genotype 1a full-length NS3/NS4A protease assessed as equilibrium dissociation constant by surface plasmon resonance biosensor-based interaction kinetic analysis; design: species or system Hepatitis C virus subtype 1a
[12] = Inhibition of Hepatitis C virus genotype 1a full-length NS3 protease assessed as equilibrium dissociation constant by surface plasmon resonance biosensor-based interaction kinetic analysis; design: species or system Hepatitis C virus subtype 1a

SMILES	Kd [1]	Kd [2]	Kd [3]	Kd [4]	Kd [5]	Kd [6]	Kd [7]	Kd [8]	Kd [9]	Kd [10]	Kd [11]	Kd [12]
COc1ccc2c(O[C@@H]3C[C@H]4C(=O)N[C@]5(C(=O)O)C[C@H]5/C=C\CCCCC[C@H](NC(=O)OC5CCCC5)C(=O)N4C3)cc(-c3csc(NC(C)C)n3)nc2c1 [CILUPREVIR]	160 nM	2.5 nM	71 nM	67 nM	2.1 nM	1.3 nM	3300 nM	7.3 nM	71 nM	220 nM	2.1 nM	3 nM
CC(C)(C)OC(=O)N[C@H]1CCCCC/C=C\[C@@H]2C[C@@]2(C(=O)NS(=O)(=O)C2CC2)NC(=O)[C@@H]2C[C@@H](OC(=O)N3Cc4cccc(F)c4C3)CN2C1=O [DANOPREVIR]	0.52 nM	10000 nM	6.5 nM	1.6 nM	1.6 nM	0.13 nM	21 nM	19000 nM	6.5 nM	1.6 nM	4 nM	2.5 nM
CC[C@H](C)[C@H](NC(=O)[C@H](CC(C)C)NC(=O)[C@@H](CC(C(=O)O)C(=O)O)NC(=O)[C@H](CC(=O)O)NC(C)=O)C(=O)N[C@@H](CC1CCCCC1)C(=O)N[C@@H](CS)C(=O)O (Ac-D[dGla]LI[Cha]C-OH)	870 nM	3300 nM	2000 nM	5600 nM	17000 nM	200 nM	1400 nM	7200 nM	5800 nM	7200 nM	36000 nM	3900 nM
CCC[C@H](NC(=O)[C@@H]1[C@H]2CCC[C@H]2CN1C(=O)[C@@H](NC(=O)[C@@H](NC(=O)c1cnccn1)C1CCCCC1)C(C)(C)C)C(=O)C(=O)NC1CC1 [TELAPREVIR]	1000 nM	3000 nM	66 nM	8.5 nM	17 nM	340 nM	66000 nM	4100 nM	67 nM	8.6 nM	14000 nM	2000 nM
CC(C)(C)NC(=O)N[C@H](C(=O)N1C[C@H]2[C@@H]([C@H]1C(=O)NC(CC1CCC1)C(=O)C(N)=O)C2(C)C)C(C)(C)C (stereo partly specified) [BOCEPREVIR]	3.9 nM	3200 nM	38 nM	90 nM			1700 nM	16000 nM	7700 nM	16000 nM		
